These results are taken from US20070004649A1, “Anti-influenza virus compound comprising biflavonoid-sialic acid glycoside” (The Kitasato Institute, priority 2003, published 2007).

In data set [1] the target is A/PR/8/34 virus sialidase (Influenza A virus, UniProt P03468). The experiment in a line: Inhibitory activity against influenza A/PR/8/34 virus sialidase (4-MU-NeuAc substrate, HA vaccine as enzyme). Format: biochemical, influenza virus A/PR/8/34 (H1N1 subtype).
In data set [2] the target is A/Guizhou/54/89 virus sialidase (Influenza A virus, UniProt I6UMM5). The experiment in a line: Inhibitory activity against influenza A/Guizhou/54/89 virus sialidase (4-MU-NeuAc substrate, HA vaccine as enzyme). Type of data set: biochemical, influenza virus A/Guizhou/54/89 (H3N2 subtype).
Data set [3] has as its target B/Ibaraki/2/85 virus sialidase (Influenza B virus, UniProt P16207). The experiment in a line: Inhibitory activity against influenza B/Ibaraki/2/85 virus sialidase (4-MU-NeuAc substrate, HA vaccine as enzyme). Type of data set: biochemical, influenza virus B/Ibaraki/2/85.
The test system of data set [4] is influenza virus. The following applies: cited from earlier work.
The subject of data set [5] is influenza virus. The following applies: cited from earlier work. This is another data set of the same source.
Data set [6] has as its system MDCK (Madin-Darby canine kidney) cells. The data set can be described thus: Cytotoxicity in non-infected MDCK cells (MTT method). Particulars: 12.5 μg/mL, three days.
[7] abbreviates: final concentration of 10 μg/mL.

Read-outs that look alike come from different tables or passages of the source.

Sequence of A/Guizhou/54/89 virus sialidase (I6UMM5 1-469): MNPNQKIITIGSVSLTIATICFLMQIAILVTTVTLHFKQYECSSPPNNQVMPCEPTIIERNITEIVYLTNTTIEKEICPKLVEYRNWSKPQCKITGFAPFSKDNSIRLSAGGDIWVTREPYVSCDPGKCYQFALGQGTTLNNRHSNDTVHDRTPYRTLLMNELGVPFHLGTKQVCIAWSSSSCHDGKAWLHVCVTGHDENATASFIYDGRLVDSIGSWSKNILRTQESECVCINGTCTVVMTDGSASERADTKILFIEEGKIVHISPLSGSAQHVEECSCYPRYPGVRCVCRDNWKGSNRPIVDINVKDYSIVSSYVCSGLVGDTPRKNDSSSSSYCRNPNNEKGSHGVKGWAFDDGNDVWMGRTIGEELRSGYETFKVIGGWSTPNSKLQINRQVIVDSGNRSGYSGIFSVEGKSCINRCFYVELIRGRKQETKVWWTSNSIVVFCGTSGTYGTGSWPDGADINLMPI
Sequence of A/PR/8/34 virus sialidase (P03468 whole entry): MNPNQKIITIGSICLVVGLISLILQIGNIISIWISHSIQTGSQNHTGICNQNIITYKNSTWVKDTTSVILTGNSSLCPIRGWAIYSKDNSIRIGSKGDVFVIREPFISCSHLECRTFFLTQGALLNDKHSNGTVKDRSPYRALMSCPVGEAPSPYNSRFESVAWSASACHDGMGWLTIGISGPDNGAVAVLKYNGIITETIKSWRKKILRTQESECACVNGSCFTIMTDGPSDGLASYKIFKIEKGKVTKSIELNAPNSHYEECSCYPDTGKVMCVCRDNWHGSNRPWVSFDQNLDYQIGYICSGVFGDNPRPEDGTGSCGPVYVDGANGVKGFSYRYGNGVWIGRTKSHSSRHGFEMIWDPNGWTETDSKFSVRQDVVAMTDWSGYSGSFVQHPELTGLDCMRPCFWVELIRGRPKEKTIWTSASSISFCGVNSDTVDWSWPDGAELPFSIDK
Sequence of B/Ibaraki/2/85 virus sialidase (P16207 whole entry): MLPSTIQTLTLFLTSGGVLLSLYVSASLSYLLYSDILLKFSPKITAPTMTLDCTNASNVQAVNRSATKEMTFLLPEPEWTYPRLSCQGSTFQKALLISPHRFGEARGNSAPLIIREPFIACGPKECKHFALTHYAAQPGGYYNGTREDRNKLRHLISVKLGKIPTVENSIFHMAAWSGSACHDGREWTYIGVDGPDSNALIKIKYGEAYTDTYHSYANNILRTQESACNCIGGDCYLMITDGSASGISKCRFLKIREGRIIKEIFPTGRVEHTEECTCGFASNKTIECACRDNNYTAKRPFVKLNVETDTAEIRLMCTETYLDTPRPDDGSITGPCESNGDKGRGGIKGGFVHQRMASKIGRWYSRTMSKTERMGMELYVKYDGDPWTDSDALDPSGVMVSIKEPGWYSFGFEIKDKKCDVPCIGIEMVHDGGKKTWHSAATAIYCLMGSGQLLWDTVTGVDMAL

Consider `COc1ccc(-c2cc(=O)c3c(O)cc(O[C@]4(C(=O)O)C[C@H](O)[C@@H](NC(C)=O)[C@H]([C@H](O)[C@H](O)CO)O4)c(-c4cc(-c5cc(=O)c6c(O)cc(OC)cc6o5)ccc4OC)c3o2)cc1` (relative stereo) [Sci-Neu-2, (S)-7″-O-(N-acetylneuraminyl)-7,4′,4′″-tri-O-methylamentoflavone], for which the melting point is 200 °C (dec.). Further, in data set [1], the 50% inhibitory concentration (IC50) is 5.74 µM. Besides, in data set [1] (even at a final concentration of 10 μg/mL (second sentence of b311), read-out: inhibitory activity against the A/PR/8/34 virus sialidase), the inhibition at 10 µg/mL was at least 70%. For the same molecule, the inhibition at 10 µg/mL in data set [1] (read-out: inhibitory activity against the A/PR/8/34 virus sialidase, final concentration of 10 μg/mL (first sentence of b311)) was at least 80%. Further, the IC50 in data set [2] was 1.15 µM. Moreover, the inhibition at 1 µg/mL in data set [2] (final concentration of 1 μg/mL) is about 50%. The same molecule showed an inhibition at 10 µg/mL in data set [2] (setting [7]) of at least 80%. This molecule also showed an inhibition at 10 µg/mL in data set [3] (setting [7]) of 65%. In addition, in data set [3] (final concentration of 100 μg/mL), the inhibition at 100 µg/mL was at least 80%.
As to `COc1c(O)cc(O)c2c(=O)cc(-c3ccc(O)cc3)oc12` [F36, 5,7,4′-trihydroxy-8-methoxyflavone], the “anti-influenza virus activity in vitro” value in the data set on influenza virus [4] is given as “has anti-influenza virus activity”. The “anti-influenza virus activity in vivo” value in the data set with influenza virus [5] was “has anti-influenza virus activity”.
On to `COc1cc(O)c2c(=O)cc(-c3ccc(OC)c(-c4c(OC5(C(=O)O)CC(O)C(NC(C)=O)C(C(O)C(O)CO)O5)cc(O)c5c(=O)cc(-c6ccc(OC7(C(=O)O)CC(O)C(NC(C)=O)C(C(O)C(O)CO)O7)cc6)oc45)c3)oc2c1` [Gin-Neu-2-(S), (S)-7″,4′″-di-O-(N-acetylneuraminyl)-7,4′-di-O-methylamentoflavone], for which the “inhibitory activity against the A/Guizhou/54/89 virus sialidase” value (from here on “inhibitory activity”) in data set [2] (final concentration of 1 μg/mL) is “about 50%”.
Still for that read-out and setting: the entry for `COC(=O)C1(Oc2cc(O)c3c(=O)cc(-c4ccc(O)cc4)oc3c2-c2cc(-c3cc(=O)c4c(O)cc(OC)cc4o3)ccc2OC)CC(OC(C)=O)C(NC(C)=O)C(C(OC(C)=O)C(COC(C)=O)OC(C)=O)O1` [Gin-NeuAc-3, (S)-7,4′-di-O-methyl-7″-O-(1″″-methyl-4″″,7″″,8″″,9″″-tetra-O-acetyl-N-acetylneuraminyl)a mentoflavone] is “about 50%”.
As for `COC(=O)C1(Oc2ccc(-c3cc(=O)c4c(O)cc(OC5(C(=O)OC)C[C@H](OC(C)=O)[C@@H](NC(C)=O)[C@H]([C@H](OC(C)=O)[C@@H](COC(C)=O)OC(C)=O)O5)c(-c5cc(-c6cc(=O)c7c(O)cc(OC)cc7o6)ccc5OC)c4o3)cc2)C[C@H](OC(C)=O)[C@@H](NC(C)=O)[C@H]([C@H](OC(C)=O)[C@@H](COC(C)=O)OC(C)=O)O1` (stereo partly drawn) [Gin-NeuAc-4, (R)-7,4′-di-O-methyl-7″-O-(1″″-methyl-4″″,7″″,8″″,9″″-tetra-O-acetyl-N-acetylneuraminyl)-4′″-O-(1′″″-methyl-4′″″,7′″″,8′″″,9′″″-tetra-O-acetyl-N-acetylneuraminyl)amentoflavone], the “inhibitory activity” value in data set [2] (final concentration of 1 μg/mL) is listed as “about 50%”.
With `COc1cc(O)c2c(=O)cc(-c3ccc(OC)c(-c4c(O)cc(O)c5c(=O)cc(-c6ccc(O)cc6)oc45)c3)oc2c1` [ginkgetin], in data set [6], the “cytotoxicity (cell viability by the MTT method)” value was “showed cytotoxicity”.
With `COc1ccc(-c2cc(=O)c3c(O)cc(O)c(-c4cc(-c5cc(=O)c6c(O)cc(O)cc6o5)ccc4OC)c3o2)cc1` [isoginkgetin], the “cytotoxicity (cell viability by the MTT method)” value in data set [6] is “showed cytotoxicity”.
As for “(5)-7″-O-(N-acetylneuraminal)-7,4′-di-O-methylamentoflavone [Gin-Neu-1-(S)]”, the “inhibitory activity” value in data set [2] (final concentration of 1 μg/mL) is “about 50%”.
Turning to “(R)-7″-O-(N-acetylneuraminyl)-7,4-di-O-methylamentoflavone [Gin-Neu-1-(R)]”, the “IC50, A/Guizhou/54/89 virus sialidase” value in data set [2] came to 1 µg/mL. In addition, the “inhibitory activity” value in data set [2] (final concentration of 1 μg/mL) is “about 50%”.
